# Data taken from ChEMBL document CHEMBL5724914, “Linking interpersonal differences in gut microbiota composition and drug biotransformation activity” (2024).
# Experiment: (§1) The drug is tested on Z-013 corresponding to rabbit gut metagenome with ENA study accession number: PRJEB37062 and ENA sample accession number: ERS12561813 for biotransformation under anaerobic condition. The drug concentrations were measured over 9 timepoints collected between 0 and 24 hours of incubation by liquid-chromatography-coupled mass spectrometry (LC–MS)
# Conditions: 2 µM
# Note: call rule not given here.
row,Bacterial Biotransformation,Structure (SMILES)
1,Compound NOT metabolized,CN1CCC(OC(c2ccccc2)c2ccccc2)CC1
2,Compound NOT metabolized,CC1=C(CC(=O)O)c2cc(F)ccc2/C1=C\c1ccc([S+](C)[O-])cc1 (stereo not given)
3,Compound NOT metabolized,CCOC(=O)[C@H](CCc1ccccc1)N[C@@H](C)C(=O)N1Cc2ccccc2C[C@H]1C(=O)O
4,Compound NOT metabolized,CCN1CCCC1CNC(=O)c1cc(S(=O)(=O)CC)c(N)cc1OC (stereo not given) [AMISULPRIDE]

# Conditions: human gut metagenome, 24 h, 2 µM
row,Bacterial Biotransformation,Structure (SMILES)
1,Compound metabolized,CN1CCC(OC(c2ccccc2)c2ccccc2)CC1
2,Compound metabolized,CC1=C(CC(=O)O)c2cc(F)ccc2/C1=C\c1ccc([S+](C)[O-])cc1 (stereo not given)
3,Compound metabolized,CCOC(=O)[C@H](CCc1ccccc1)N[C@@H](C)C(=O)N1Cc2ccccc2C[C@H]1C(=O)O
4,Compound NOT metabolized,CCN1CCCC1CNC(=O)c1cc(S(=O)(=O)CC)c(N)cc1OC (stereo not given) [AMISULPRIDE]

# Conditions: human gut metagenome, 24 h, 2 µM
# Remark: another data set of the same source
row,Bacterial Biotransformation,Structure (SMILES)
1,Compound NOT metabolized,CN1CCC(OC(c2ccccc2)c2ccccc2)CC1
2,Compound metabolized,CC1=C(CC(=O)O)c2cc(F)ccc2/C1=C\c1ccc([S+](C)[O-])cc1 (stereo not given)
3,Compound metabolized,CCOC(=O)[C@H](CCc1ccccc1)N[C@@H](C)C(=O)N1Cc2ccccc2C[C@H]1C(=O)O
4,Compound NOT metabolized,CCN1CCCC1CNC(=O)c1cc(S(=O)(=O)CC)c(N)cc1OC (stereo not given) [AMISULPRIDE]

# Conditions: human gut metagenome, 24 h, 2 µM
# Remark: another data set of the same source
row,Bacterial Biotransformation,Structure (SMILES)
1,Compound metabolized,CN1CCC(OC(c2ccccc2)c2ccccc2)CC1
2,Compound metabolized,CC1=C(CC(=O)O)c2cc(F)ccc2/C1=C\c1ccc([S+](C)[O-])cc1 (stereo not given)
3,Compound metabolized,CCOC(=O)[C@H](CCc1ccccc1)N[C@@H](C)C(=O)N1Cc2ccccc2C[C@H]1C(=O)O
4,Compound metabolized,CCN1CCCC1CNC(=O)c1cc(S(=O)(=O)CC)c(N)cc1OC (stereo not given) [AMISULPRIDE]

# Conditions: human gut metagenome, 24 h, 2 µM
# Remark: another data set of the same source
row,Bacterial Biotransformation,Structure (SMILES)
1,Compound NOT metabolized,CN1CCC(OC(c2ccccc2)c2ccccc2)CC1
2,Compound metabolized,CC1=C(CC(=O)O)c2cc(F)ccc2/C1=C\c1ccc([S+](C)[O-])cc1 (stereo not given)
3,Compound NOT metabolized,CCOC(=O)[C@H](CCc1ccccc1)N[C@@H](C)C(=O)N1Cc2ccccc2C[C@H]1C(=O)O
4,Compound NOT metabolized,CCN1CCCC1CNC(=O)c1cc(S(=O)(=O)CC)c(N)cc1OC (stereo not given) [AMISULPRIDE]

# Experiment: as §1, with “Z-024” for “Z-013”, “pig” for “rabbit”, “ERS12561823” for “ERS12561813”
# Conditions: 2 µM
row,Bacterial Biotransformation,Structure (SMILES)
1,Compound metabolized,CN1CCC(OC(c2ccccc2)c2ccccc2)CC1
2,Compound metabolized,CC1=C(CC(=O)O)c2cc(F)ccc2/C1=C\c1ccc([S+](C)[O-])cc1 (stereo not given)
3,Compound NOT metabolized,CCOC(=O)[C@H](CCc1ccccc1)N[C@@H](C)C(=O)N1Cc2ccccc2C[C@H]1C(=O)O
4,Compound NOT metabolized,CCN1CCCC1CNC(=O)c1cc(S(=O)(=O)CC)c(N)cc1OC (stereo not given) [AMISULPRIDE]

# Experiment: as §1, with “Z-026” for “Z-013”, “to” for “to rabbit gut”, “ERS12561825” for “ERS12561813”
# Conditions: 2 µM
row,Bacterial Biotransformation,Structure (SMILES)
1,Compound NOT metabolized,CN1CCC(OC(c2ccccc2)c2ccccc2)CC1
2,Compound metabolized,CC1=C(CC(=O)O)c2cc(F)ccc2/C1=C\c1ccc([S+](C)[O-])cc1 (stereo not given)
3,Compound NOT metabolized,CCOC(=O)[C@H](CCc1ccccc1)N[C@@H](C)C(=O)N1Cc2ccccc2C[C@H]1C(=O)O
4,Compound NOT metabolized,CCN1CCCC1CNC(=O)c1cc(S(=O)(=O)CC)c(N)cc1OC (stereo not given) [AMISULPRIDE]

# Experiment: as §1, with “Z-021” for “Z-013”, “to” for “to rabbit gut”, “ERS12561820” for “ERS12561813”
# Conditions: 2 µM
row,Bacterial Biotransformation,Structure (SMILES)
1,Compound metabolized,CN1CCC(OC(c2ccccc2)c2ccccc2)CC1
2,Compound NOT metabolized,CC1=C(CC(=O)O)c2cc(F)ccc2/C1=C\c1ccc([S+](C)[O-])cc1 (stereo not given)
3,Compound NOT metabolized,CCOC(=O)[C@H](CCc1ccccc1)N[C@@H](C)C(=O)N1Cc2ccccc2C[C@H]1C(=O)O
4,Compound NOT metabolized,CCN1CCCC1CNC(=O)c1cc(S(=O)(=O)CC)c(N)cc1OC (stereo not given) [AMISULPRIDE]

# Conditions: human gut metagenome, 24 h, 2 µM
# Remark: another data set of the same source
row,Bacterial Biotransformation,Structure (SMILES)
1,Compound NOT metabolized,CN1CCC(OC(c2ccccc2)c2ccccc2)CC1
2,Compound metabolized,CC1=C(CC(=O)O)c2cc(F)ccc2/C1=C\c1ccc([S+](C)[O-])cc1 (stereo not given)
3,Compound NOT metabolized,CCOC(=O)[C@H](CCc1ccccc1)N[C@@H](C)C(=O)N1Cc2ccccc2C[C@H]1C(=O)O
4,Compound NOT metabolized,CCN1CCCC1CNC(=O)c1cc(S(=O)(=O)CC)c(N)cc1OC (stereo not given) [AMISULPRIDE]

# Conditions: human gut metagenome, 24 h, 2 µM
# Remark: another data set of the same source
row,Bacterial Biotransformation,Structure (SMILES)
1,Compound metabolized,CN1CCC(OC(c2ccccc2)c2ccccc2)CC1
2,Compound metabolized,CC1=C(CC(=O)O)c2cc(F)ccc2/C1=C\c1ccc([S+](C)[O-])cc1 (stereo not given)
3,Compound metabolized,CCOC(=O)[C@H](CCc1ccccc1)N[C@@H](C)C(=O)N1Cc2ccccc2C[C@H]1C(=O)O
4,Compound NOT metabolized,CCN1CCCC1CNC(=O)c1cc(S(=O)(=O)CC)c(N)cc1OC (stereo not given) [AMISULPRIDE]

# Conditions: human gut metagenome, 24 h, 2 µM
# Remark: another data set of the same source
row,Bacterial Biotransformation,Structure (SMILES)
1,Compound metabolized,CN1CCC(OC(c2ccccc2)c2ccccc2)CC1
2,Compound metabolized,CC1=C(CC(=O)O)c2cc(F)ccc2/C1=C\c1ccc([S+](C)[O-])cc1 (stereo not given)
3,Compound metabolized,CCOC(=O)[C@H](CCc1ccccc1)N[C@@H](C)C(=O)N1Cc2ccccc2C[C@H]1C(=O)O
4,Compound NOT metabolized,CCN1CCCC1CNC(=O)c1cc(S(=O)(=O)CC)c(N)cc1OC (stereo not given) [AMISULPRIDE]

# Experiment: as §1, with “Z-023” for “Z-013”, “to” for “to rabbit gut”, “ERS12561822” for “ERS12561813”
# Conditions: 2 µM
row,Bacterial Biotransformation,Structure (SMILES)
1,Compound metabolized,CN1CCC(OC(c2ccccc2)c2ccccc2)CC1
2,Compound metabolized,CC1=C(CC(=O)O)c2cc(F)ccc2/C1=C\c1ccc([S+](C)[O-])cc1 (stereo not given)
3,Compound metabolized,CCOC(=O)[C@H](CCc1ccccc1)N[C@@H](C)C(=O)N1Cc2ccccc2C[C@H]1C(=O)O
4,Compound NOT metabolized,CCN1CCCC1CNC(=O)c1cc(S(=O)(=O)CC)c(N)cc1OC (stereo not given) [AMISULPRIDE]

# Experiment: as §1, with “Z-016” for “Z-013”, “mouse” for “rabbit”, “ERS12561815” for “ERS12561813”
# Conditions: 2 µM
row,Bacterial Biotransformation,Structure (SMILES)
1,Compound NOT metabolized,CN1CCC(OC(c2ccccc2)c2ccccc2)CC1
2,Compound NOT metabolized,CC1=C(CC(=O)O)c2cc(F)ccc2/C1=C\c1ccc([S+](C)[O-])cc1 (stereo not given)
3,Compound NOT metabolized,CCOC(=O)[C@H](CCc1ccccc1)N[C@@H](C)C(=O)N1Cc2ccccc2C[C@H]1C(=O)O
4,Compound NOT metabolized,CCN1CCCC1CNC(=O)c1cc(S(=O)(=O)CC)c(N)cc1OC (stereo not given) [AMISULPRIDE]

# Conditions: human gut metagenome, 24 h, 2 µM
# Remark: another data set of the same source
row,Bacterial Biotransformation,Structure (SMILES)
1,Compound metabolized,CN1CCC(OC(c2ccccc2)c2ccccc2)CC1
2,Compound metabolized,CC1=C(CC(=O)O)c2cc(F)ccc2/C1=C\c1ccc([S+](C)[O-])cc1 (stereo not given)
3,Compound metabolized,CCOC(=O)[C@H](CCc1ccccc1)N[C@@H](C)C(=O)N1Cc2ccccc2C[C@H]1C(=O)O
4,Compound metabolized,CCN1CCCC1CNC(=O)c1cc(S(=O)(=O)CC)c(N)cc1OC (stereo not given) [AMISULPRIDE]

# Conditions: human gut metagenome, 24 h, 2 µM
# Remark: another data set of the same source
row,Bacterial Biotransformation,Structure (SMILES)
1,Compound metabolized,CN1CCC(OC(c2ccccc2)c2ccccc2)CC1
2,Compound metabolized,CC1=C(CC(=O)O)c2cc(F)ccc2/C1=C\c1ccc([S+](C)[O-])cc1 (stereo not given)
3,Compound metabolized,CCOC(=O)[C@H](CCc1ccccc1)N[C@@H](C)C(=O)N1Cc2ccccc2C[C@H]1C(=O)O
4,Compound metabolized,CCN1CCCC1CNC(=O)c1cc(S(=O)(=O)CC)c(N)cc1OC (stereo not given) [AMISULPRIDE]

# Experiment: as §1, with “WLS-073” for “Z-013”, “human” for “rabbit”, “ERS12561749” for “ERS12561813”
# Conditions: 2 µM
row,Bacterial Biotransformation,Structure (SMILES)
1,Compound NOT metabolized,CN1CCC(OC(c2ccccc2)c2ccccc2)CC1
2,Compound metabolized,CC1=C(CC(=O)O)c2cc(F)ccc2/C1=C\c1ccc([S+](C)[O-])cc1 (stereo not given)
3,Compound metabolized,CCOC(=O)[C@H](CCc1ccccc1)N[C@@H](C)C(=O)N1Cc2ccccc2C[C@H]1C(=O)O
4,Compound NOT metabolized,CCN1CCCC1CNC(=O)c1cc(S(=O)(=O)CC)c(N)cc1OC (stereo not given) [AMISULPRIDE]

# Experiment: as §1, with “WLS-090” for “Z-013”, “human” for “rabbit”, “ERS12561753” for “ERS12561813”
# Conditions: 2 µM
row,Bacterial Biotransformation,Structure (SMILES)
1,Compound metabolized,CN1CCC(OC(c2ccccc2)c2ccccc2)CC1
2,Compound metabolized,CC1=C(CC(=O)O)c2cc(F)ccc2/C1=C\c1ccc([S+](C)[O-])cc1 (stereo not given)
3,Compound metabolized,CCOC(=O)[C@H](CCc1ccccc1)N[C@@H](C)C(=O)N1Cc2ccccc2C[C@H]1C(=O)O
4,Compound metabolized,CCN1CCCC1CNC(=O)c1cc(S(=O)(=O)CC)c(N)cc1OC (stereo not given) [AMISULPRIDE]

# Experiment: as §1, with “Z-003” for “Z-013”, “pig” for “rabbit”, “ERS12561803” for “ERS12561813”
# Conditions: 2 µM
row,Bacterial Biotransformation,Structure (SMILES)
1,Compound NOT metabolized,CN1CCC(OC(c2ccccc2)c2ccccc2)CC1
2,Compound NOT metabolized,CC1=C(CC(=O)O)c2cc(F)ccc2/C1=C\c1ccc([S+](C)[O-])cc1 (stereo not given)
3,Compound metabolized,CCOC(=O)[C@H](CCc1ccccc1)N[C@@H](C)C(=O)N1Cc2ccccc2C[C@H]1C(=O)O
4,Compound metabolized,CCN1CCCC1CNC(=O)c1cc(S(=O)(=O)CC)c(N)cc1OC (stereo not given) [AMISULPRIDE]

# Experiment: as §1, with “Z-008” for “Z-013”, “to” for “to rabbit gut”, “ERS12561808” for “ERS12561813”
# Conditions: 2 µM
row,Bacterial Biotransformation,Structure (SMILES)
1,Compound NOT metabolized,CN1CCC(OC(c2ccccc2)c2ccccc2)CC1
2,Compound NOT metabolized,CC1=C(CC(=O)O)c2cc(F)ccc2/C1=C\c1ccc([S+](C)[O-])cc1 (stereo not given)
3,Compound NOT metabolized,CCOC(=O)[C@H](CCc1ccccc1)N[C@@H](C)C(=O)N1Cc2ccccc2C[C@H]1C(=O)O
4,Compound NOT metabolized,CCN1CCCC1CNC(=O)c1cc(S(=O)(=O)CC)c(N)cc1OC (stereo not given) [AMISULPRIDE]

# Experiment: as §1, with “Z-009” for “Z-013”, “pig” for “rabbit”, “ERS12561809” for “ERS12561813”
# Conditions: 2 µM
row,Bacterial Biotransformation,Structure (SMILES)
1,Compound NOT metabolized,CN1CCC(OC(c2ccccc2)c2ccccc2)CC1
2,Compound NOT metabolized,CC1=C(CC(=O)O)c2cc(F)ccc2/C1=C\c1ccc([S+](C)[O-])cc1 (stereo not given)
3,Compound NOT metabolized,CCOC(=O)[C@H](CCc1ccccc1)N[C@@H](C)C(=O)N1Cc2ccccc2C[C@H]1C(=O)O
4,Compound NOT metabolized,CCN1CCCC1CNC(=O)c1cc(S(=O)(=O)CC)c(N)cc1OC (stereo not given) [AMISULPRIDE]
